Laboratory results published in patent US5358947A, “Angiotensin II receptor blocking 2,3-substituted pyrazolo[1,5-a]-1,3,5-triazin-4(3H)-ones” (American Cyanamid Company, priority 1993, dated 1994).
Several values for one entry are separate records, joined by “and”; a condition that tells them apart may be missing. Identical values can stand only once. Counter-ions that a name gives are not always drawn.

System: ANGIOTENSIN II (AII) VASOPRESSOR RESPONSE
Experiment: AII Challenge: angiotensin II (AII) vasopressor response in conscious rats
Format: in vivo
Parameters: Response After AII / Change / Average Change: unit not given here
Details: 10 mg/kg i.v.; for Response After AII / Change / Control Before AII: individual rat; for Control Before AII: in mmHg (unit assumed); for % Inhibition / Average Change: n = 2
Outline: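 Conscious male Okamoto-Aoki SHR (16-20 weeks, ~330 g), aorta/vena cava cannulated, challenged with AII 0.05 and 0.1 ug/kg i.v. before and at 30-300 min after compound dosed i.v., i.p. or orally. Systolic pressure rise expressed relative to each rat's predose response (100%).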

[1] = AII 0.05 mcg/kg, 30 min post dose
[2] = AII 0.05 mcg/kg, 30 min post dose, listed as Ex. 21, potassium salt
[3] = AII 0.05 mcg/kg, 60 min post dose, listed as Ex. 21, potassium salt
[4] = AII 0.05 mcg/kg, 90 min post dose, listed as Ex. 21, potassium salt
[5] = AII 0.05 mcg/kg, 120 min post dose, listed as Ex. 21, potassium salt
[6] = AII 0.05 mcg/kg, 180 min post dose, listed as Ex. 21, potassium salt
[7] = AII 0.05 mcg/kg, 240 min post dose, listed as Ex. 21, potassium salt
[8] = AII 0.05 mcg/kg, 300 min post dose, listed as Ex. 21, potassium salt
[9] = AII 0.1 mcg/kg, 30 min post dose
[10] = AII 0.1 mcg/kg, 30 min post dose, listed as Ex. 21, potassium salt
[11] = AII 0.1 mcg/kg, 60 min post dose, listed as Ex. 21, potassium salt
[12] = AII 0.1 mcg/kg, 90 min post dose, listed as Ex. 21, potassium salt
[13] = AII 0.1 mcg/kg, 120 min post dose, listed as Ex. 21, potassium salt
[14] = AII 0.1 mcg/kg, 180 min post dose, listed as Ex. 21, potassium salt
[15] = AII 0.1 mcg/kg, 240 min post dose, listed as Ex. 21, potassium salt
[16] = AII 0.1 mcg/kg, 300 min post dose, listed as Ex. 21, potassium salt

CCCCc1nc2ccnn2c(=O)n1Cc1ccc(-c2ccccc2-c2nn[nH]n2)cc1 [Example 21, 2-Butyl-3-[[2'-(1H-tetrazol-5-yl)-[[1,1'-biphenyl]-4-yl]methyl]-pyrazolo[1,5-a]-1,3,5-triazin-4(3H)-one potassium salt]
Response After AII [1]: 220
Change [2]: 5 and 25
Response After AII [2]: 225
Control Before AII [2]: 215 and 200
% Inhibition [1]: 65%
Average Change [1]: 15
Change [3]: 25 and 40
Response After AII [3]: 235 and 250
Control Before AII [3]: 210
% Inhibition [3]: 24%
Average Change [3]: 32.5
Change [4]: 20
Response After AII [4]: 230 and 260
Control Before AII [4]: 210 and 240
% Inhibition [4]: 53%
Average Change [4]: 20
Control Before AII (AII 0.05 mcg/kg, 120 min post dose): 220
Change [5]: 20 and 30
Response After AII [5]: 240 and 255
Control Before AII [5]: 225
% Inhibition [5]: 41%
Average Change [5]: 25
Change [6]: 21 and 45
Response After AII [6]: 245 and 255
Control Before AII [6]: 224 and 210
% Inhibition [6]: 22%
Average Change [6]: 33
Change [7]: 25 and 35
Response After AII [7]: 245 and 250
Control Before AII [7]: 220 and 215
% Inhibition [7]: 29%
Average Change [7]: 30
Change [8]: 31 and 40
Response After AII [8]: 245 and 250
Control Before AII [8]: 214 and 210
% Inhibition [8]: 16%
Average Change [8]: 35.5
Response After AII [9]: 230
Change [10]: 15 and 30
Response After AII [10]: 225
Control Before AII [10]: 210 and 200
% Inhibition [9]: 58%
Average Change [9]: 22.5
Change [11]: 20 and 30
Response After AII [11]: 245 and 255
Control Before AII [11]: 225
% Inhibition [11]: 53%
Average Change [11]: 25
Change [12]: 30 and 35
Response After AII [12]: 245 and 260
Control Before AII [12]: 215 and 225
% Inhibition [12]: 39%
Average Change [12]: 32.5
Change [13]: 35 and 40
Response After AII [13]: 255 and 265
Control Before AII [13]: 220 and 225
% Inhibition [13]: 30%
Average Change [13]: 37.5
Control Before AII (AII 0.1 mcg/kg, 180 min post dose): 240
Change [14]: 30 and 35
Response After AII [14]: 255 and 275
Control Before AII [14]: 225
% Inhibition [14]: 39%
Average Change [14]: 32.5
Change [15]: 40
Response After AII [15]: 265 and 260
Control Before AII [15]: 225 and 220
% Inhibition [15]: 25%
Average Change [15]: 40
Change [16]: 50 and 60
Response After AII [16]: 265 and 280
Control Before AII [16]: 215 and 220
% Inhibition [16]: -3%
Average Change [16]: 55
